Test [1] concerns the target RNA-directed RNA polymerase (Hepacivirus hominis, UniProt O39930). Description: Inhibitory concentration against Hepatitis C virus-RNA-dependent RNA polymerase.
Test [2] deals with Human immunodeficiency virus type 1 reverse transcriptase (Human immunodeficiency virus 1, UniProt Q72547). As to the kind of experiment: Inhibitory concentration against HIV-Reverse transcriptase.

SMILES strings stand for the structures.

Chain of RNA-directed RNA polymerase (O39930 whole entry): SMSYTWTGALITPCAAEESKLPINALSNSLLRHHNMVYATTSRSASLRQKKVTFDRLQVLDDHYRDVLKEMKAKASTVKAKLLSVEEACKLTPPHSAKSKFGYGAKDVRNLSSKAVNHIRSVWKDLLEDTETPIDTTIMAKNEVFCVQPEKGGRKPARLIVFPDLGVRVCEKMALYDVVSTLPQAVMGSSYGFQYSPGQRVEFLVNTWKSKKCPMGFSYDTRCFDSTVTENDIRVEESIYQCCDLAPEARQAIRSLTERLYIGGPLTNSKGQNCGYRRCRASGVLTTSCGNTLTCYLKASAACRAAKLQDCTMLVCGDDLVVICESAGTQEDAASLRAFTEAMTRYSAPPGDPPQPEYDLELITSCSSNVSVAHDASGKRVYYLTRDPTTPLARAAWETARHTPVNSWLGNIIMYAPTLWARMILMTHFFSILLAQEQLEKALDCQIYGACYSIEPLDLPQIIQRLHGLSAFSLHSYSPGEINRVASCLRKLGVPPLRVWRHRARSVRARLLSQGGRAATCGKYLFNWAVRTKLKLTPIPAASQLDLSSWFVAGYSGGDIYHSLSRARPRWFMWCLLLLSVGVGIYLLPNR

With `C[N+]1(C)C[C@@]23C4=C5C6=C7c8c9c%10c%11c%12c%13c%14c%15c%16c%17c%18c%19c%20c%21c%22c%23c%24c%25c%26c%27c(c(c8c8c%10c%13c(c%278)c8c%14c%17c(c%24c%22%18)c%268)[C@@]72C1)[C@H]%25[C@@H]3C=%23[C@@H]4[C@H]%21c1c5c2c3c(c1-%20)[C@H]([C@H]%19%16)[C@@]1(C[N+](C)(C)C[C@]%12%151)C3=C%11[C@H]9[C@H]62`, the IC50 in test [1] was 240 nM; in test [2], 1600 nM.
The matching figures for `C[N+]1(C)C[C@]23c4c5c6c7c8c9c%10c%11c%12c%13c%14c%15c%16c%17c%18c%19c%20c(c2c2c4c4c6c6c8c%10c8c%12c%10c%14c(c%15%19)c%12c%20c2c2c4c6c8c%10c%122)[C@@H]%18[C@H]2c4c6c8c%10c(c4-%17)[C@@H]%16[C@H]%13[C@@]%114C[N+](C)(C)C[C@]%104C=9[C@H]8[C@@H]7C5=C6[C@]23C1`: 310 nM and 1400 nM.
Compound `CCCCn1c(=O)c(C2=NS(=O)(=O)c3ccccc3N2)c(O)c2ccccc21` had an IC50 in test [1] of 100 nM.
On to `O=C(O)C1(C(=O)O)[C@]23c4c5c6c7c8c9c%10c%11c%12c%13c%14c%15c%16c%17c%18c%19c%20c(c2c2c4c4c6c6c8c%10c8c%12c%10c%14c(c%15%19)c%12c%20c2c2c4c6c8c%10c%122)[C@@H]%18[C@H]2c4c6c8c%10c(c4-%17)[C@@H]%16[C@H]%13[C@@]%114C(C(=O)O)(C(=O)O)[C@]%104C=9[C@H]8[C@@H]7C5=C6[C@@]213`, for which the concentration for half-maximal inhibition (IC50) in test [1] came out at 3200 nM; in test [2], 1200 nM.
The matching figures for `C[N+]1(C)C[C@]23c4c5c6c7c8c9c%10c%11c%12c%13c%14c%15c%16c%17c%18c%19c%20c%21c(c2c2c4c4c6c9c6c4c4c2c%21c2c(c%16%20)c%15c9c%13c%10c6c9c24)[C@@H]%19[C@H]2c4c6c9c%10c(c4-%18)[C@@H]%17[C@@H]%14C%12=C%10[C@]4(C[N+](C)(C)C[C@@]8%114)[C@H]9[C@@H]7C5=C6[C@]23C1`: 310 nM and 1700 nM.
Consider `CCCCCCCCCC[N@+]1(C)C[C@@]23c4c5c6c7c8c9c%10c%11c%12c%13c%14c%15c%16c%17c%18c%19c%20c%21c(c2c2c4c4c6c9c6c4c4c2c%21c2c%19c(c%18%14)c9c%13c%10c6c9c24)C2=C4c6c(c-%16c9c%10c6[C@H]([C@@H]5C7=C%10[C@]5(C[N+](C)(C)C[C@]8%115)[C@H]9[C@H]%15%12)[C@@]43C1)[C@@H]%17[C@H]2%20`, for which the IC50 in test [1] worked out at 1400 nM; in test [2], 1300 nM.
Take `O=C(O)CN1C[C@@]23C4=C5c6c7c8c9c(c%10c%11c%12c%13c%14c%15c%16c%17c%18c%19c%20c%21c%22c%23c(c6c6c8c8c%24c9c%11c9c(c%16%12)c%17c%11c%19c%12c%21c%23c6c8c%12c%11c9%24)[C@@H]5[C@@H]5C=%22[C@H]6c8c(c-%14c(c4c85)[C@@H]2[C@H]%13%10)[C@H]%15[C@@H]%18[C@@H]%206)[C@]73[C@@H]1C(=O)O`: the IC50 in test [1] was over 10000 nM; in test [2], 1000 nM.

Broadly, the IC50 is the concentration that inhibits the measured activity by half. A low value points to inhibition by little substance.

The record behind these values is ChEMBL document CHEMBL1144363, “Human immunodeficiency virus-reverse transcriptase inhibition and hepatitis C virus RNA-dependent RNA polymerase inhibition activities of fullerene derivatives” (Bioorg Med Chem Lett, 2005).
